Experimental data as given in patent US9814778B2, “Ionically crosslinked polyelectrolytes as underwater adhesives as controlled release vehicles” (The University of Toledo, priority 2014, dated 2017).

What was measured:
[1] = Dye loading efficiency and loading capacity of dye-loaded coacervates (UV-Vis of supernatant); format: physicochemical
Description: All solutions were adjusted to pH 7 using HCl and NaOH prior to mixing. The mixtures were than centrifuged at 15,000 rpm for 90 min using an Ependorf centrifuge. […] The loading capacity (LC) and loading efficiency (LE) for each loading procedure was calculated by subtracting the mass of dye in the supernatant from the total mass of dye originally in the solutions in the microcentrifuge tubes. The total dye mass in the supernatant was determined by measuring the supernatant mass in each tube and determining the supernatant dye concentration using UV-Vis spectroscopy (Varian Cary 50 Spectrophotometer) and the absorbance at a wavelength of 614 nm (ε=9.57×103 m2/mol) and 555 nm (ε=9.82×103 m2/mol) for Fast Green FCF and Rhodamine B, respectively. The LC and LE were then calculated using the following equations: […]
Similarly, the LEs of the dye-loaded complexes was measured at a constant initial dye concentration of 1 mg/ml while the PAH concentration was varied. The dye-loaded complex samples were prepared as outlined above; however, the PAH concentration was varied (between 2.5 and 10.0 wt %). […] The LC- and LE-values were then determined using Equations 1 and 2.

PAH/TPP complexes = test: Isothermal titration calorimetry of dyes into PAH/TPP dispersion; format: binding; settings: pH 7
Description: (§1) The Fast Green FCF and Rhodamine B solutions were then prepared at concentrations of 0.43 and 0.80 wt %, respectively. All solutions were adjusted to pH 7 using HCl and NaOH. ITC experiments were run by placing the PAH/PPi or PAH/TPP complex solutions in the sample cell, and loading the dye solution into the injector. The dye solutions were then titrated using twenty 15-μL injections, with 20 min equilibration intervals between each injection. The contents of the sample cell were stirred at 307 rpm with the impeller-shaped injector tip. The instrument software was used to integrate the raw ITC data obtained from these titrations. The heat of dilution, which was obtained by titrating the dye solutions into DI water, was then subtracted from the integrated data to obtain the final thermograms. To ensure reproducibility, each ITC test was repeated twice.
(§2) Fast Green FCF and Rhodamine B are anionic and cationic, respectively. ITC was used to probe the binding of these dye molecules to the ionically crosslinked networks. In ITC the heat required to maintain a sample cell (which contains a binding substrate solution) at a constant temperature upon the addition of a binding ligand solution is measured, with endothermic or exothermic peaks in the ITC raw data indicating binding. […]

PAH/PPi complexes = test: Isothermal titration calorimetry of dyes into PAH/PPi dispersion; format: binding; settings: pH 7
Description: as §1, §2

[2] = Dye release from dye-loaded complexes in 1×PBS at 37° C. (UV-Vis); format: physicochemical; settings: PAH/PPi and PAH/TPP complexes, 7-8 mm plugs, time span of up to 164 days
Description: The supernatant was removed from the microcentrifuge tube, and the inside of the tube was rinsed with DI water to ensure all excess supernatant was removed. The release medium, 1 ml of 1×PBS, was then added to the microcentrifuge tube. During the release evaluations, the contents of the microcentrifuge tube was mixed at 400 rpm in an Ependorf Thermomixer at 37° C. The old PBS solution was replaced with fresh PBS daily. UV-Vis spectroscopy was used to determine the amount of dye released within this one day interval. The concentration of dye in the PBS was determined using the absorbance of the solution as described above. These release studies were run until the amount of dye released in one day became so low that a discernable peak in the UV-Vis spectrum could not be obtained. The weight of the adhesives was also tracked during the release process using the procedure described above. Each release experiment was repeated thrice to ensure reproducibility. An additional release study was run (using the same complex/dye compositions) with tap water at room temperature as the release medium.
The released dye concentration in the PBS was determined using UV-Vis spectroscopy, with the PBS being replaced daily. This procedure was repeated until discernable UV-Vis peaks could no longer be obtained from the PBS samples in order to obtain release profiles. […]

[3] = in solution; cited from earlier work
[4] = PAH/PPi, initial dye 0.5 mg/ml, 10.0 wt % PAH
[5] = PAH/PPi, initial dye 1 mg/ml, 5% PAH
[6] = PAH/PPi, initial dye 1 mg/ml, 10% PAH
[7] = PAH/PPi, initial dye 1 mg/ml, 10.0 wt % PAH
[8] = PAH/PPi, initial dye 4 mg/ml, 10.0 wt % PAH
[9] = PAH/TPP, initial dye 0.5 mg/ml, 10.0 wt % PAH
[10] = PAH/TPP, initial dye 1 mg/ml, 5% PAH
[11] = PAH/TPP, initial dye 1 mg/ml, 10% PAH
[12] = PAH/TPP, initial dye 1 mg/ml, 10.0 wt % PAH
[13] = PAH/TPP, initial dye 4 mg/ml, 10.0 wt % PAH

Compound | Loading Capacity [1, 4] [mg/mL] | Loading Efficiency [1, 4] [%] | Loading Efficiency [1, 5] [%] | Loading Efficiency [1, 6] [%] | Loading Capacity [1, 7] [mg/mL] | Loading Capacity [1, 8] [mg/mL] | Loading Efficiency [1, 8] [%] | Loading Capacity [1, 9] [mg/mL] | Loading Efficiency [1, 9] [%] | Loading Efficiency [1, 10] [%] | Loading Efficiency [1, 11] [%] | Loading Capacity [1, 12] [mg/mL] | Loading Capacity [1, 13] [mg/mL] | Loading Efficiency [1, 13] [%] | binding to the ionically crosslinked network (ITC) (PAH/TPP complexes) | binding to the ionically crosslinked network (ITC) (PAH/PPi complexes) | further results
CCN(Cc1cccc(S(=O)(=O)[O-])c1)c1ccc(C(=C2C=CC(=[N+](CC)Cc3cccc(S(=O)(=O)[O-])c3)C=C2)c2ccc(O)cc2S(=O)(=O)[O-])cc1.[Na+].[Na+] [Fast Green, Fast Green FCF] | 3.16 ± 0.17 | 56.48 ± 3.04 | 61.69 ± 1.13 | 63.03 ± 1.37 | 7.04 ± 0.15 | 30.62 ± 0.93 | 68.54 ± 2.09 | 3.31 ± 0.07 | 64.01 ± 1.45 | 72.40 ± 0.53 | 72.94 ± 3.09 | 7.54 ± 0.32 | 30.89 ± 1.43 | 74.74 ± 3.47 | strong cooperative binding | strong cooperative binding | fraction of payload released [2]: < 5%
CCN(CC)c1ccc2c(-c3ccccc3C(=O)O)c3ccc(=[N+](CC)CC)cc-3oc2c1.[Cl-] [Rhodamine B] | 0.55 ± 0.16 | 9.83 ± 2.79 | 3.76 ± 0.45 | 6.38 ± 0.79 | 0.71 ± 0.09 | 3.46 ± 1.24 | 7.76 ± 2.77 | 0.45 ± 0.11 | 8.71 ± 2.10 | 3.78 ± 0.32 | 6.27 ± 1.04 | 0.65 ± 0.11 | 2.74 ± 0.58 | 6.62 ± 1.41 | binds only very weakly and non-cooperatively | binds only very weakly and non-cooperatively | Loading Efficiency ([1]; PAH/PPi, initial dye 1 mg/ml, 2.5% PAH): 1.49 ± 0.30%; Loading Efficiency ([1]; PAH/TPP, initial dye 1 mg/ml, 2.5% PAH): 1.59 ± 0.65%
tripolyphosphate [TPP] |  |  |  |  |  |  |  |  |  |  |  |  |  |  |  |  | pKa,3 [3]: 2.8; pKa,4 [3]: 6.5; pKa,5 [3]: 9.2
